Experimental data reported in ChEMBL document CHEMBL5729359, “Tri-substituted heteroaryl derivatives as Src homology-2 phosphatase inhibitors” (2022).

target: T1, Tyrosine-protein phosphatase non-receptor type 11 (Homo sapiens, UniProt Q06124); test: At the basal state, SHP2 is auto-inhibited and access of substrates to the catalytic site is blocked by the […] interactions between the SH2 domains and the PTP domain. When bis-tyrosyl-phosphorylated peptides bind to SH2 domain of SHP2, the PTP domain becomes available for substrate recognition and reaction catalysis and SHP2 is allosterically activated. SHP2 catalytic activity can be measured using a fluorogenic artificial substrate DiFMUP.The phosphatase reactions were carried out at room temperature in 384-well black polystyrene plates (Greiner Bio-One, Cat #784076) using assay buffers containing 60 mM HEPES, pH 7.2, 75 mM NaCl, 75 mM KCl, 1 mM EDTA, 0.05% P-20, and 5 mM DTT.0.33 nM of […] was co-incubated with of 0.5 μM of bisphos-IRS 1 peptide (sequence: H2N-LN(pY)IDLDLV(dPEG8)LST(pY)ASINFQK-amide) and various concentrations of compounds for 30-60 min at room temperature. Then the reaction was initiated by addition of the surrogate substrate DiFMUP (Invitrogen, Cat #D6567, 100 uM final).The real-time conversion of DiFMUP to DiFMU (6,8-difluoro-7-hydroxyl-4-methyl-coumarin) was measured every 5 min for 30 min using a microplate reader (CLARIOstar, BMG Labtech) with excitation and emission wavelengths of 340 nm and 450 nm, respectively. Initial reaction rates were determined by linear fitting of the data and the inhibitor dose response curves were analyzed using normalized IC50 regression curve fitting with control based normalization.
T1 sequence (Q06124 whole entry): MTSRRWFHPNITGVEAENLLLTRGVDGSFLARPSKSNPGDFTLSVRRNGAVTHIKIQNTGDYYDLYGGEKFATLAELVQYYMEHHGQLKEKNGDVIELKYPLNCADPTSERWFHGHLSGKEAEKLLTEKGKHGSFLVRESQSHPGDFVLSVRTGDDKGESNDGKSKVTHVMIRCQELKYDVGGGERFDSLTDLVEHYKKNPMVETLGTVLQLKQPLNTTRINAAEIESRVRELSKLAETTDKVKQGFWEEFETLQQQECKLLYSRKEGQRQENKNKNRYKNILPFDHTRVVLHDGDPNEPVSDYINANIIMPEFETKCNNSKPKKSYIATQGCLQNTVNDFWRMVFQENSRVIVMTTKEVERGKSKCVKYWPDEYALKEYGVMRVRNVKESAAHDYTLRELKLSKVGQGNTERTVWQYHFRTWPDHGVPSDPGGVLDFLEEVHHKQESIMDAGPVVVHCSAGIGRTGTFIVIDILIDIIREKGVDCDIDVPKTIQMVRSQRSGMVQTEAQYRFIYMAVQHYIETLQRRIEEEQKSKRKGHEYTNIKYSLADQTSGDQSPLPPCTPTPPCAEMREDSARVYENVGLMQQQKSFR

Row | SMILES | IC50 [nM]
1 | C[C@@H]1OCC2(CCN(c3ncc(Sc4cccnc4C(F)(F)F)nc3[S+](C)[O-])CC2)[C@@H]1N (stereo partly specified) | 85
2 | C[C@@H]1OCC2(CCN(c3ncc(Sc4ccnc(N)c4Cl)nc3Cl)CC2)[C@@H]1N | 12
3 | C[C@@H]1OCC2(CCN(c3ncc(Sc4ccnc(N)c4Cl)nc3[S+](C)[O-])CC2)[C@@H]1N (stereo partly specified) | 13
4 | C[C@@H]1OCC2(CCN(c3ncc(Sc4ccnc(F)c4Cl)nc3[S+](C)[O-])CC2)[C@@H]1N (stereo partly specified) | 21
5 | C[C@@H]1OCC2(CCN(c3ncc(Sc4ccnc(N)c4Cl)nc3O)CC2)[C@@H]1N | 13
6 | COc1nccc(Sc2cnc(N3CCC4(CC3)CO[C@@H](C)[C@H]4N)c([S+](C)[O-])n2)c1Cl (stereo partly specified) | 18
7 | C[C@@H]1OCC2(CCN(c3ncc(Sc4ccnc(N5CCCC5)c4Cl)nc3[S+](C)[O-])CC2)[C@@H]1N (stereo partly specified) | 13
8 | CN1C(=O)CCC12CC(N)C1(CCN(c3ncc(Sc4ccnc(N)c4Cl)nc3CO)CC1)C2 (stereo unspecified) | 269

Compounds with a lower IC50, results first:

Row | IC50 [nM] | SMILES
9 | 6 | C[C@@H]1OCC2(CCN(c3ncc(Sc4ccnc(Cl)c4Cl)nc3[S+](C)[O-])CC2)[C@@H]1N (stereo partly specified)
10 | 5.5 | COC1CCc2[nH]c3cc(Sc4cnc(N5CCC6(CC5)CO[C@@H](C)[C@H]6N)c(CO)n4)c(Cl)nc3c2C1 (stereo partly specified)
11 | 4.8 | C[C@@H]1OCC2(CCN(c3ncc(Sc4cc5[nH]c6c(c5nc4Cl)CCCC6O)nc3CO)CC2)[C@@H]1N (stereo partly specified)
12 | 3.5 | C[C@@H]1OCC2(CCN(c3ncc(Sc4cc5[nH]c6c(c5nc4Cl)CC(O)CC6)nc3CO)CC2)[C@@H]1N (stereo partly specified)
13 | 3 | C[C@@H]1OCC2(CCN(c3ncc(Sc4cc(N)nc(Cl)c4Cl)nc3[S+](C)[O-])CC2)[C@@H]1N (stereo partly specified)
14 | 3 | Nc1nccc(Sc2cnc(N3CCC4(CC3)CCC3(CC3)C4N)c(CO)n2)c1Cl (stereo unspecified)
15 | 0.9 | C[C@@H]1OCC2(CCN(c3ncc(Sc4ccnc(N)c4Cl)nc3CO)CC2)[C@@H]1N
16 | 0.6 | Nc1nccc(Sc2cnc(N3CCC4(CC3)Cc3ncccc3[C@H]4N)c(CO)n2)c1Cl
